Measurements published in patent US7501281B2, “Compositions, methods and kits related to thrombin, Notch signaling and stamatogenesis and growth of stem cells” (Maine Medical Center Research Institute, priority 2003, dated 2009).

System: primary NCSC populations
Assay: Clonogenic differentiation of primary NCSC, dosage sensitivity to Notch ligands
Format: cell-based, rat
Details: two week differentiation assay
Method: FIG. 12A depicts an RT-PCR analysis of FGF1.A mRNA expression. Briefly, populations of murine NCSC were treated for 48 hours in Morrison media supplemented with either 7.5 nM sJ1, 5.0 nM sDl1, 10 μg/ml of α-thrombin or 5 μg/ml TRAP, and the steady-state levels of the FGF1.A mRNA were measured using RT-PCR as described elsewhere herein. […] Clonogenic differentiation assays of murine NCSC populations were assessed by maintaining the cells in Morrison media supplemented with increasing concentrations of either sJ1 or sDl1. The results are presented as the number of colonies at day 14 (mean±standard deviation for at least three experiments) originating from three independent cell isolations as function of concentration of sJ1 and sDl1 using two assays of ligand sensitivity: the percentage of glial-only clones (▪-▪; ▴-▴) and the percentage of neuron-containing clones (♦-♦; ▾-▾) produced after 14 days of ligand exposure. Legend: (▴-▴)sJ1/Glial, (▾-▾) sDl1/Glial (♦-♦) sJ1/Neural and (▾-▾) sJDl1/Neural. […] Clonogenic differentiation assays of NCSC populations was assessed by maintaining the cells in Morrison media supplemented with either 7.5 nM sJ1 (▪-▪) or 5 nM sDl1 (▴-▴). The onset of gliogenic differentiation was determined by GFAP immunohistochemistry. Results are presented as the percentage of GFAP-positive clones (mean±standard deviation of three experiments). […]

sJ1: Soluble Jagged1, amino acid residues from about 1 to 1067 (SEQ ID NO:3) of full-length Jagged1
gliogenic differentiation of the NCSC population: capable of inducing gliogenic differentiation
